Reference: ChEMBL document CHEMBL1932997, “Identification of oxazolidinediones and thiazolidinediones as potent 17β-hydroxysteroid dehydrogenase type 3 inhibitors” (Bioorg Med Chem Lett, 2012)
pIC50: −log10 of the molar value. One block for each compound: values may come before it. Active and inactive are the calls of the source. The calls are words filed in the database; no cut-off is given here.

Legend:
[1] = biological target: T1, 17-beta-hydroxysteroid dehydrogenase type 3 (Homo sapiens, UniProt P37058); experiment: Inhibition of human 17beta-HSD3 expressed in HeLa cells assessed as conversion of 4-androstene-3,17-dione to testosterone; format: cell-based; settings: for pIC50: read-out: IC50; for IC50: hela
T1 sequence (P37058 whole entry): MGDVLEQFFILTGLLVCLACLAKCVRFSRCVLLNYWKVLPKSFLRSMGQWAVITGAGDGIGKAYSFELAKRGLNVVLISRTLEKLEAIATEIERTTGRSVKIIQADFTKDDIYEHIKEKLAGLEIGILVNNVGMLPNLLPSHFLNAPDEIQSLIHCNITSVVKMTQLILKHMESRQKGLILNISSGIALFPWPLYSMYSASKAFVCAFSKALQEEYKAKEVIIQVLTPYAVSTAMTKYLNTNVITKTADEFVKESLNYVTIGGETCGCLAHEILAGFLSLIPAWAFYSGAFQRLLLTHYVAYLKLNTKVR

[2] = Inhibition of 17beta-HSD3 in marmoset testes homogenate; format: tissue-based, Callitrichinae sp., Testis
[3] = biological target: T2, Glucocorticoid receptor (Homo sapiens) (UniProt P04150); experiment: Antagonist activity at glucocorticoid receptor by transcriptional reporter gene assay; format: functional
T2 sequence (whole entry): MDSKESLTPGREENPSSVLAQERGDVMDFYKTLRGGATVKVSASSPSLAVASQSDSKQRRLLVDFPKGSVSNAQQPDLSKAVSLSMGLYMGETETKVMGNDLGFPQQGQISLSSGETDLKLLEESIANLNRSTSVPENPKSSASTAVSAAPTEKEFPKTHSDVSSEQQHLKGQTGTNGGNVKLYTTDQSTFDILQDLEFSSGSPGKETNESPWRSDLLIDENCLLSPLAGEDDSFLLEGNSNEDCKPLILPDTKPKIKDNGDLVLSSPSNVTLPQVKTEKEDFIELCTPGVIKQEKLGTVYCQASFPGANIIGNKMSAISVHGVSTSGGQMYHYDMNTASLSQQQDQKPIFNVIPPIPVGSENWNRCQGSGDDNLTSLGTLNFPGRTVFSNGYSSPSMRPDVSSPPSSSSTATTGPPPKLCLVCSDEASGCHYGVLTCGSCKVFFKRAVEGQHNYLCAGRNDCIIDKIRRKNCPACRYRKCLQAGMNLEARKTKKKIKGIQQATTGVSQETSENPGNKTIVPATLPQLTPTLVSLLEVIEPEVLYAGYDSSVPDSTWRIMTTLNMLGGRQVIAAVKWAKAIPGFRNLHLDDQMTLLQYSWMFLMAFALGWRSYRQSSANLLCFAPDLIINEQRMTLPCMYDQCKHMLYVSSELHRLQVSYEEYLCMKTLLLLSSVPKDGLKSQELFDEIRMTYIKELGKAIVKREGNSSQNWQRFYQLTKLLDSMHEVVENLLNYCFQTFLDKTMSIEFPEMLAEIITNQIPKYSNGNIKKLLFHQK

[4] = biological target: T3, 17-beta-hydroxysteroid dehydrogenase type 3 (Homo sapiens) (UniProt P37058); settings: HeLa, 10 uM
T3 sequence (whole entry): T1 sequence (P37058 whole entry)
Description: Inhibition of human 17beta-HSD3 activity expressed in HeLa cells assessed as conversion of 4-androstene-3,17-dione to testosterone at 10 uM

[5] = biological target: T4, 17-beta-hydroxysteroid dehydrogenase type 2 (Homo sapiens) (UniProt P37059); experiment: Inhibition of 17beta-HSD2 expressed in HeLa cells assessed as conversion of estrone into estradiol; format: cell-based
T4 sequence (whole entry): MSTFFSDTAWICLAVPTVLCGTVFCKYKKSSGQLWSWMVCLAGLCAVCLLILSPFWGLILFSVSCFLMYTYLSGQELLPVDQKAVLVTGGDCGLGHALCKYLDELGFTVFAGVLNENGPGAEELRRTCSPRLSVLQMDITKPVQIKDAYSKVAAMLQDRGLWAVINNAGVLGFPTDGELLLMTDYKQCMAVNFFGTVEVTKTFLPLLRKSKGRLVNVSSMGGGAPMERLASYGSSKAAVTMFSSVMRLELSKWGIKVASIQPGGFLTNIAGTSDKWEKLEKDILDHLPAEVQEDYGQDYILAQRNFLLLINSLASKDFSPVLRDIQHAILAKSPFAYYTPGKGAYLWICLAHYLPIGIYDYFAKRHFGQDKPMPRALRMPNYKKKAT

[6] = biological target: T5, Estrogen receptor (Homo sapiens) (UniProt P03372); experiment: Antagonist activity at ERalpha by transcriptional reporter gene assay; format: functional
T5 sequence (whole entry): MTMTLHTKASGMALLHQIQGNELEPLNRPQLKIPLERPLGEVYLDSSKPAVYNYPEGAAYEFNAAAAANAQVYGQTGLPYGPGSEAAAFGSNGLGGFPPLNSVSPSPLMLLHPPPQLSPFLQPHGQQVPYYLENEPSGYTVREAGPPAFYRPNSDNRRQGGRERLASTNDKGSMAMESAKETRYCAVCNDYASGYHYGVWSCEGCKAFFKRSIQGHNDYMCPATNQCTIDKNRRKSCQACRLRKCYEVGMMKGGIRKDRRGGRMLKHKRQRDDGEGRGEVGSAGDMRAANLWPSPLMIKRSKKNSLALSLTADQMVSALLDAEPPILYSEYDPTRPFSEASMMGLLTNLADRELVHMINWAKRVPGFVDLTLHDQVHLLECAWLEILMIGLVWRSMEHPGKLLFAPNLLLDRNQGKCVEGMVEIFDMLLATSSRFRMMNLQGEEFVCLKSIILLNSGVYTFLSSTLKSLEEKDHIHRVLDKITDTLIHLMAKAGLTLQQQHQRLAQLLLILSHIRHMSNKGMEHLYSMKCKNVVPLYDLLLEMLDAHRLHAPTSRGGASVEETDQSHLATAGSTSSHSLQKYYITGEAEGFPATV

[7] = biological target: T5, Estrogen receptor (Homo sapiens); experiment: Agonist activity at ERalpha by transcriptional reporter gene assay; format: functional
[8] = biological target: T6, 17-beta-hydroxysteroid dehydrogenase type 3 (Mus musculus, UniProt P70385); experiment: Inhibition of 17beta-HSD3 in mouse testes homogenate; format: tissue-based, Testis
T6 sequence (P70385 whole entry): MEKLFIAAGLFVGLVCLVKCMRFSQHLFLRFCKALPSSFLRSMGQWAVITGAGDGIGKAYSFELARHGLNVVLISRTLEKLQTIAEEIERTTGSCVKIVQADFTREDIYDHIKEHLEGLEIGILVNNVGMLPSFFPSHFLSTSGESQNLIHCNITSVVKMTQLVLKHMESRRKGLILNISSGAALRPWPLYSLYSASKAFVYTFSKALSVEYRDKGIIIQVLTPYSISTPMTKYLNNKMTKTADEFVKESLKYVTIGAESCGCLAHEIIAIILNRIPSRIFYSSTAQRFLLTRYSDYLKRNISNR

[9] = biological target: T7, Androgen receptor (Homo sapiens) (UniProt P10275); experiment: Agonist activity at androgen receptor by transcriptional reporter gene assay; format: functional
T7 sequence (whole entry): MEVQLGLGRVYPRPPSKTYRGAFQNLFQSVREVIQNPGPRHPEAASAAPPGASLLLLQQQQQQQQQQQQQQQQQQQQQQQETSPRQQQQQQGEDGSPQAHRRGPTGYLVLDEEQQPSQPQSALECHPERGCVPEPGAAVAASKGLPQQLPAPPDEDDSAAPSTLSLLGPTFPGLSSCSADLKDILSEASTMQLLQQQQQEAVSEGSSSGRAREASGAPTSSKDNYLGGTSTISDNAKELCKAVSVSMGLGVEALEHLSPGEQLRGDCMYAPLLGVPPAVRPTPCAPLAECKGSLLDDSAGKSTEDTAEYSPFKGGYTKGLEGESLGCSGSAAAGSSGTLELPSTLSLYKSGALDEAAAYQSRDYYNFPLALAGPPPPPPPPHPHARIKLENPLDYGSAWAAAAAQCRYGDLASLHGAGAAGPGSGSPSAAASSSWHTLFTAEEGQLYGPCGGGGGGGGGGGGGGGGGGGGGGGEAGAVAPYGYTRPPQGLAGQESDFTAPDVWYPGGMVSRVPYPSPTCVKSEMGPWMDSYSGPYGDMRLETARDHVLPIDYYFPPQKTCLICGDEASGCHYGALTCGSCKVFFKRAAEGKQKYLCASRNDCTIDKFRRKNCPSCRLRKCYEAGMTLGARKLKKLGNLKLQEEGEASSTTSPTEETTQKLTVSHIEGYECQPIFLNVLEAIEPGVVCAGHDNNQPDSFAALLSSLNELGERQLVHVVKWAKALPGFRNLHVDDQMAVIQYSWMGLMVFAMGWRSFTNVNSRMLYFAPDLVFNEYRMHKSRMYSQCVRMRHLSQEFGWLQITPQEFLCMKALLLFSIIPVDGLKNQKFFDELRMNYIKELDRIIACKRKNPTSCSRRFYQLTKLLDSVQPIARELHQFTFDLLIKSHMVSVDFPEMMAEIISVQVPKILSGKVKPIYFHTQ

[10] = biological target: T2, Glucocorticoid receptor (Homo sapiens); experiment: Agonist activity at glucocorticoid receptor by transcriptional reporter gene assay; format: functional
[11] = biological target: T8, 17-beta-hydroxysteroid dehydrogenase type 1 (Homo sapiens) (UniProt P14061); experiment: Inhibition of 17beta-HSD1 expressed in HeLa cells assessed as conversion of estrone into estradiol; format: cell-based
T8 sequence (whole entry): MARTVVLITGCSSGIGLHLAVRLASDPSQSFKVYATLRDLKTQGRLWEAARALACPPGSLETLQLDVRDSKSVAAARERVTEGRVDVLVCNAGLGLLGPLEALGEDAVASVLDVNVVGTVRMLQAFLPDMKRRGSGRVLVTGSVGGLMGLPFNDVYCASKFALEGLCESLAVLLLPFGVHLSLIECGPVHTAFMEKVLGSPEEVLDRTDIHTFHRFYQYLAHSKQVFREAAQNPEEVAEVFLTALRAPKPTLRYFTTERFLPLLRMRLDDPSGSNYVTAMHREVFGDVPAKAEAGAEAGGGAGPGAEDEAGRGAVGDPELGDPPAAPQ

[12] = biological target: T1, 17-beta-hydroxysteroid dehydrogenase type 3; experiment: Inhibition of 17beta-HSD3 in human testes homogenate; format: tissue-based, Testis
[13] = biological target: T7, Androgen receptor (Homo sapiens); experiment: Antagonist activity at androgen receptor by transcriptional reporter gene assay; format: functional

Structure (SMILES): COc1ccc(N2C(=O)OC(Cc3ccc(O)c(Br)c3)C2=O)cc1 (configuration not stated)
- pIC50 [1]: 6.52

Structure (SMILES): COc1ccc(N2C(=O)O/C(=C\c3ccc(O)c(Br)c3)C2=O)cc1
- pIC50 [1]: 7.64

Structure (SMILES): COc1ccc(-n2cc(Cc3ccc(O)c(Br)c3)sc2=O)cc1
- pIC50 [1]: 6.24

Structure (SMILES): COc1ccc(N2C(=O)N/C(=C\c3ccc(O)c(Br)c3)C2=O)cc1
- IC50 [1]: Not Active

Structure (SMILES): COc1ccc(N2C(=O)/C(=C/c3ccc(O)c(Br)c3)N(C)C2=O)cc1
- IC50 [1]: Not Active

Further compounds by rising pIC50 [1], results first:

- pIC50 [1]: 5.24
Structure (SMILES): COc1ccc(-n2cnn(Cc3ccc(O)c(Br)c3)c2=O)cc1

- pIC50 [1]: 6.17
Structure (SMILES): COc1ccc(N2C/C(=C/c3ccc(O)c(Br)c3)OC2=O)cc1

- pIC50 [1]: 7.05
Structure (SMILES): COc1ccc(N2C(=O)S/C(=C\c3ccc(O)c(Br)c3)C2=O)cc1

- pIC50 [2]: 9.22
- pIC50 [1]: 7.85
- Activity [3]: inactive
- inhibition [4]: 23%
- inhibition [5]: inactive
- Activity [6]: inactive
- Activity [7]: inactive
- pIC50 [8]: 7.40
- Activity [9]: inactive
- Activity [10]: inactive
- inhibition [11]: inactive
- pIC50 [12]: 8.22
- Activity [13]: inactive
Structure (SMILES): COc1ccc(N2C(=O)/C(=C/c3ccc(O)c(Br)c3)SC2=S)cc1

- pIC50 [1]: 7.89
Structure (SMILES): COc1ccc(N2C(=O)/C(=C/c3ccc(O)c(Br)c3)OC2=S)cc1
